Where two headings read alike, the source gives them in different places.
Legend:
normal mice = experiment: Influence on delayed type hypersensitivity in normal mice (Pharmacological Experiment 4); format: in vivo, mouse (ICR male); conditions: for Food pad swelling: 24 hours, mean ± standard error, n = 10
Protocol: Influence of the organogermanium compound on the DTH response of normal mice is investigated.
Normal ICR male mice (age of 8 weeks) were immunized with 10^6 cells of SRBC by intravenous route. On 4 days after immunization, the organogermanium compound (Example 4) dissolved in 4% bovine serum albumin was orally administered at the dose of 0.1, 1.0 and 10.0 mg/kg. Just after the treatment with the compound, mice were challenged to intracutaneus injection of 2×10^8 cells of SRBC to hind food pad.
After 24 hours from the injection, the swelling of the foot pad was observed by a stereoscopic microscope.

[1] = tested on: interferon (IFN) production; format: in vivo, mouse (BALB/c male); conditions: for INF titer: lung supernatant, three days, mean ± standard error, n = 5
Lewis lung carcinoma = experiment: Anti-tumor effect, Lewis lung carcinoma (Pharmacological Experiment 6); format: in vivo, mouse (C57BL/6 male); conditions: for Inhibition (development of solid tumor) / Tumor weight: 5 days, 14th day; for Tumor weight: mean ± standard deviation, n = 10
Protocol: An anti-tumor effect of the organogermanium compound according to the invention is examined.
C57BL/6 male mice (n=10) as experimental animals were subcutaneously implanted with 1×10^5 cells of Lewis lung carcinoma to form a solid tumor. The organogermanium compound (Example 4) dissolved in 4% bovine serum albumin was orally administered at the dose of 0.1, 1.0 and 10.0 mg/kg once a day for 5 days on days 1 to 5 after the tumor implantation.
On 14th day from the implantation, formed solid tumor was removed and weighed. An antitumor effect represented the inhibitory percent of the compound on the development of solid tumor.

Sarcoma 180 tumor cells = experiment: Anti-tumor effect, Sarcoma 180 (Pharmacological Experiment 7); format: in vivo, mouse (ICR male); conditions: for Inhibition (development of solid tumor) / Tumor weight: 10 days, 20th day; for Tumor weight: mean ± standard error, n = 10
Protocol: An anti-tumor effect of the organogermanium compound according to the invention is examined to Sarcoma 180 tumor cells.
Sarcoma 180 tumor cells were subcutaneously implanted with 2×10^6cells to male ICR mice (n=10) as experimental animals to form a solid tumor. The organogermanium compound (Example 4) dissolved in 4% bovine serum albumin was orally administered at the dose of 0.1, 1.0 and 10.0 mg/kg once a day for 10 days on the day after the implantation.
On the 20th day from the implantation, formed solid tumor was removed and weighed. An antitumor effect represented the inhibitory percent of the compound on the development of solid tumor.

[2] = tested on: Vaccinia virus (DI strain); format: in vivo, mouse (ddy male); conditions: for Inhibition (pocks) / Number of pocks: 7th day; for Number of pocks: mean ± standard error, n = 10, (***) p < 0.001 vs Control
[3] = tested on: Influenza virus (A/PR/S strain); experiment: Anti-virus effect, influenza virus infection model of mouse (Pharmacological Experiment 9); format: in vivo, mouse (BALB/c male); conditions: for Ratio of survival / Average life: 6 days; for Ratio of survival: 20 days from infection
Protocol: An antiviral effect of the compound according to the invention is investigated with an experimental influenza virus infection model of mouse.
Influenza virus (A/PR/S strain) was inoculated into a trachea of BALB/c male mice at 9.0 PFU/mouse. The organogermanium compound (Example 4) dissolved in 4% bovine serum albumin solution was orally administered at the dose of 0.1, 1.0 and 10.0 mg/kg once a day for 6 days from the day just after the infection to the 5th day therefrom.
A mortality of the mice was observed over 20 days from the virus infection.

[4] = tested on: acute liver injury induced by galactosamine (serum transaminases); experiment: Action to acute liver injury induced by galactosamine (Pharmacological Experiment 10); format: in vivo, rat (Wister male); conditions: for s-GPT / s-GOT: 5 days, 48 hours, mean ± standard error, n = 10
Protocol: An action of the organogermanium compound of the invention to an acute liver injury to be induced by galactosamine, as an experimental model for liver injury is checked, through measurement of serum transaminases, as indexes.
To Wister male rats (n=10 for each group), galactosamine was administered into abdominal canal by a dose of 400 mg/kg at 2 times with an interval of 6 hours to induce a acute liver injury.
To the […] in each Test group, the compound according to the invention (Example 4) dissolved in 4% bovine serum albumin solution was orally administered by 0.1, 1.0 or 10.0 mg/kg/day over 5 days beginning from 3 days before the administration of galactosamine.
After having lapsed 48 hours from the first administration of galactosamine, a blood letting was carried out to measure GOT and GPT values in serum.

[5] = tested on: chronic liver injury induced by carbon tetrachloride (serum transaminases); experiment: Action to chronic liver injury induced by carbon tetrachloride (Pharmacological Experiment 11); format: in vivo, rat (Wister male); conditions: for s-GOT / s-GPT: 10 weeks every other day, mean ± standard error, n = 10
Protocol: An action of the organogermanium compound of the invention to a chronic liver injury to be induced by carbon tetrachloride, as an experimental model for liver injury is checked, through measurement of serum transaminases, as indexes.
To Wister male rats (n=10 for each group), carbon tetrachloride was intraperitoneally administered at the dose of 480 mg/kg at 2 times by each week for 10 weeks to induce a chronic liver injury.
To the […] in each Test group, the compound according to the invention (Example 4) dissolved in 4% bovine serum albumin solution was orally administered at the dose of 0.1, 1.0 and 10.0 mg/kg/day over 10 weeks in every other day.
After having lapsed 2 days from the final administration of carbon tetrachloride, a blood letting was carried out to measure GOT and GPT values in serum.

[6] = 1.0 mg/kg orally once a day, (*) p < 0.05 vs Control
[7] = 0.1 mg/kg (as printed in Table 8) orally
[8] = 1.0 mg/kg/day orally, (*) p < 0.05 vs Control
[9] = 10.0 mg/kg/day orally, (*) p < 0.05 vs Control

For “Sodium 2-oxygermylethanesulfonate polymer [Example 4]”, the Food pad swelling (normal mice; 0.1 mg/kg orally, (**) p < 0.01 vs Control) was 70.9 ± 9.1 x 0.01 mm, the Food pad swelling (normal mice; 1.0 mg/kg orally, (***) p < 0.001 vs Control) was 59.0 ± 6.6 x 0.01 mm and the Food pad swelling (normal mice; 10.0 mg/kg orally, (*) p < 0.05 vs Control) was 86.9 ± 10.2 x 0.01 mm. The “DTH response of normal mice (result in words)” value (normal mice; 0.1, 1.0 and 10.0 mg/kg orally) was “significantly reduced the DTH response of normal mice”, the INF titer ([1]; 0.1 mg/kg orally) was 49.3 ± 5.3 IU/mg protein and the “IFN activity, times higher than the control group” value ([1]; 1.0 mg/kg orally) was “about 2.5 times”. The INF titer ([1]; 1.0 mg/kg orally, (**) p < 0.01 vs control) was 138.3 ± 17.1 IU/mg protein, the “IFN activity, times higher than the control group” value ([1]; 10.0 mg/kg orally) was about 2.8 times and the INF titer ([1]; 10.0 mg/kg orally, (**) p < 0.01 vs control) was 156.7 ± 28.3 IU/mg protein. The “Inhibition (development of solid tumor)” value (Lewis lung carcinoma; 0.1 mg/kg orally once a day) was 6.8%, the Tumor weight (Lewis lung carcinoma; 0.1 mg/kg orally once a day) was 1.77 ± 0.47 g and the “Inhibition (development of solid tumor)” value (Lewis lung carcinoma; 1.0 mg/kg orally once a day) was 46.3%. The Tumor weight (Lewis lung carcinoma; [6]) was 1.02 ± 0.16 g, the “Inhibition (development of solid tumor)” value (Lewis lung carcinoma; 10.0 mg/kg orally once a day) was 28.4% and the Tumor weight (Lewis lung carcinoma; 10.0 mg/kg orally once a day) was 1.36 ± 0.31 g. The “Growth of Lewis lung carcinoma (result in words)” value (Lewis lung carcinoma; 0.1, 1.0 and 10.0 mg/kg orally) was “significantly inhibited the growth of Lewis lung carcinoma”, the “Inhibition (development of solid tumor)” value (Sarcoma 180 tumor cells; 0.1 mg/kg orally once a day) was 28% and the Tumor weight (Sarcoma 180 tumor cells; 0.1 mg/kg orally once a day) was 1.87 ± 0.46 g. For the same substance, the “Inhibition (development of solid tumor)” value (Sarcoma 180 tumor cells; 1.0 mg/kg orally once a day) was 69%, the Tumor weight (Sarcoma 180 tumor cells; [6]) was 0.82 ± 0.22 g and the “Inhibition (development of solid tumor)” value (Sarcoma 180 tumor cells; 10.0 mg/kg orally once a day) was 38%. The Tumor weight (Sarcoma 180 tumor cells; 10.0 mg/kg orally once a day) was 1.61 ± 0.29 g, the “Growth of Sarcoma 180 solid tumor (result in words)” value (Sarcoma 180 tumor cells; 0.1, 1.0 and 10.0 mg/kg orally) was “reduced the growth of Sarcoma 180 solid tumor cells” and the “Inhibition (pocks)” value [2, 7] was 41.0%. For the same substance, the Number of pocks [2, 7] was 23 ± 2, the “Inhibition (pocks)” value ([2]; 10.0 mg/kg orally) was 43.5% and the Number of pocks ([2]; 10.0 mg/kg orally) was 22 ± 4. The “Host defense against Vaccinia virus (result in words)” value ([2]; orally) was “has host defense function against Vaccinia virus infected mice”, the Ratio of survival ([3]; 0.1 mg/kg orally once a day) was 0/10 and the Average life ([3]; 0.1 mg/kg orally once a day, (*) p < 0.05 vs Control) was 10.0 days. For the same substance, the Ratio of survival ([3]; 1.0 mg/kg orally once a day) was 4/10, the Average life ([3]; 1.0 mg/kg orally once a day, (***) p < 0.001 vs Control) was 15.2 days and the “Mice alive at end of test period” value ([3]; 1.0 mg/kg orally, 20 days from the infection) was 4 mice. For the same substance, the Ratio of survival ([3]; 10.0 mg/kg orally once a day) was 3/10, the Average life ([3]; 10.0 mg/kg orally once a day, (**) p < 0.01 vs Control) was 13.7 days and the “Average life vs Control group (result in words)” value ([3]; each of Testing groups, 0.1, 1.0 and 10.0 mg/kg orally) was “a significant difference has been recognized”. The s-GPT ([4]; 0.1 mg/kg/day orally) was 382 ± 151 Karmen Unit, the s-GOT ([4]; 0.1 mg/kg/day orally, (*) p < 0.05 vs Control) was 1034 ± 184 and the s-GPT [4, 8] was 238 ± 87 Karmen Unit. The s-GOT ([4]; 1.0 mg/kg/day orally, (***) p < 0.001 vs Control) was 563 ± 133, the s-GPT [4, 9] was 275 Karmen Unit and the s-GOT ([4]; 10.0 mg/kg/day orally, (**) p < 0.01 vs Control) was 620 ± 201. The “GOT and GPT values (result in words)” value ([4]; 0.1, 1.0 or 10.0 mg/kg/day orally) was “noticeably decreasing GOT and GPT values”, the s-GOT ([5]; 0.1 mg/kg/day orally) was 1200 ± 180 and the s-GPT ([5]; 0.1 mg/kg/day orally) was 1005 ± 97 Karmen Unit. The s-GOT [5, 8] was 1054 ± 140, the s-GPT [5, 8] was 940 ± 83 Karmen Unit and the s-GPT ([5]; 10.0 mg/kg/day orally) was 1086 ± 112 Karmen Unit. For the same substance, the s-GOT [5, 9] was 1020 ± 164 and the “GOT and GPT values (result in words)” value ([5]; by the dose of 1.0 mg/kg orally) was “noticeably decreasing GOT and GPT values”.
